# Measurements: US10765114B2, “4-amino-6-(pyridyl and 2-substitutedphenyl)-picolinates and 6-amino-2-(pyridyl and 2-substitutedphenyl)-pyrimidine-4-carboxylates and their use as herbicides” (Dow AgroSciences LLC, priority 2013, dated 2020)
# Where two headings read alike, the source gives them in different places.
# Assays:
# [1] = system: Key Grass and Sedge Weeds as well as Grass Crops; assay: Post-Emergent Test II (Table 6); assay type: in vivo; conditions: post-emergence, 336 h, 14 days after application; for pest or weed control at 70 g/ha: 70 g ai/ha; for pest or weed control at 140 g/ha: 140 g ai/ha
# How it was run: (§1)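 Visual injury ratings (0 = no injury, 100 = complete kill) were taken 14 days after treatment relative to untreated plants. Seedlings at the first or second true leaf stage received an overhead spray at 187 L/ha, and solvent-blank sprayed plants served as controls.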
# [2] = system: Key Broadleaf Weed and Crop Species; assay: Post-Emergent Test II (Table 5); assay type: in vivo; conditions: post-emergence, 336 h; for pest or weed control at 70 g/ha: application rate 70 (kg ai/ha; footnote: g ai/ha); for pest or weed control at 140 g/ha: application rate 140 (kg ai/ha; footnote: g ai/ha)
# How it was run: as §1
# [3] = CYPSS, read-out: Visual Growth Reduction (%) 14 Days After Application CYPSS
# [4] = DIGSA: crabgrass (Digitaria sanguinalis), read-out: Visual Growth Reduction (%) 14 Days After Application DIGSA
# [5] = ORYSS (crop), read-out: Visual Growth Reduction (%) 14 Days After Application ORYSS
# [6] = SETFA: giant foxtail (Setaria faberi), read-out: Visual Growth Reduction (%) 14 Days After Application SETFA
# [7] = SORVU: grain sorghum (Sorghum vulgare), read-out: Visual Growth Reduction (%) 14 Days After Application SORVU
# [8] = TRZSS (crop), read-out: Visual Growth Reduction (%) 14 Days After Application TRZSS
# [9] = ZEAMX: maize, corn (Zea mays), read-out: Visual Growth Reduction (%) 14 Days After Application ZEAMX
# [10] = Abutilon theophrasti, ABUTH: velvetleaf (Abutilon theophrasti), read-out: Visual Growth Reduction (%) 14 Days After Application ABUTH
# [11] = Amaranthus retroflexus, AMARE: redroot pigweed (Amaranthus retroflexus), read-out: Visual Growth Reduction (%) 14 Days After Application AMARE
# [12] = Brassica napus, BRSSS: oilseed rape, canola (Brassica napus), read-out: Visual Growth Reduction (%) 14 Days After Application BRSSS
# [13] = Chenopodium album, CHEAL: lambsquarters (Chenopodium album), read-out: Visual Growth Reduction (%) 14 Days After Application CHEAL
# [14] = Euphorbia heterophylla, EPHHL: wild poinsettia (Euphorbia heterophylla), read-out: Visual Growth Reduction (%) 14 Days After Application EPHHL
# [15] = Helianthus annuus, HELAN: sunflower (Helianthus annuus), read-out: Visual Growth Reduction (%) 14 Days After Application HELAN
# [16] = Viola tricolor, VIOTR: wild pansy (Viola tricolor), read-out: Visual Growth Reduction (%) 14 Days After Application VIOTR
SMILES,"pest or weed control at 70 g/ha [1, 3] [%]","pest or weed control at 140 g/ha [1, 3] [%]","pest or weed control at 70 g/ha [1, 4] [%]","pest or weed control at 140 g/ha [1, 4] [%]","pest or weed control at 70 g/ha [1, 5] [%]","pest or weed control at 140 g/ha [1, 5] [%]","pest or weed control at 70 g/ha [1, 6] [%]","pest or weed control at 140 g/ha [1, 6] [%]","pest or weed control at 70 g/ha [1, 7] [%]","pest or weed control at 140 g/ha [1, 7] [%]","pest or weed control at 70 g/ha [1, 8] [%]","pest or weed control at 140 g/ha [1, 8] [%]","pest or weed control at 70 g/ha [1, 9] [%]","pest or weed control at 140 g/ha [1, 9] [%]",melting point [°C],"pest or weed control at 70 g/ha [2, 10] [%]","pest or weed control at 140 g/ha [2, 10] [%]","pest or weed control at 70 g/ha [2, 11] [%]","pest or weed control at 140 g/ha [2, 11] [%]","pest or weed control at 70 g/ha [2, 12] [%]",also measured
COC(=O)c1nc(-c2ccc(Cl)c(F)c2C)c(Cl)c(N)c1Cl [Compound 3],0 to 29,0 to 29,0 to 29,0 to 29,0 to 29,0 to 29,0 to 29,0 to 29,0 to 29,0 to 29,0 to 29,0 to 29,0 to 29,0 to 29,122 to 136,60 to 74,60 to 74,95 to 100,95 to 100,0 to 29,"pest or weed control at 140 g/ha [2, 12]: 0 to 29%; pest or weed control at 70 g/ha [2, 13]: 60 to 74%; pest or weed control at 140 g/ha [2, 13]: 75 to 84%; pest or weed control at 70 g/ha [2, 14]: 0 to 29%; pest or weed control at 140 g/ha [2, 14]: 0 to 29%; pest or weed control at 70 g/ha [2, 15]: 75 to 84%; pest or weed control at 140 g/ha [2, 15]: 75 to 84%; pest or weed control at 70 g/ha [2, 16]: 0 to 29%; pest or weed control at 140 g/ha [2, 16]: 0 to 29%"
COC(=O)c1nc(-c2ccc(Cl)c(F)c2Cl)cc(N)c1Cl [Compound 72],95 to 100,95 to 100,75 to 84,75 to 84,0 to 29,0 to 29,75 to 84,75 to 84,60 to 74,95 to 100,45 to 59,45 to 59,60 to 74,75 to 84,183 to 189,95 to 100,95 to 100,95 to 100,95 to 100,85 to 94,"pest or weed control at 140 g/ha [2, 12]: 95 to 100%; pest or weed control at 70 g/ha [2, 13]: 95 to 100%; pest or weed control at 140 g/ha [2, 13]: 95 to 100%; pest or weed control at 70 g/ha [2, 14]: 85 to 94%; pest or weed control at 140 g/ha [2, 14]: 85 to 94%; pest or weed control at 70 g/ha [2, 15]: 75 to 84%; pest or weed control at 140 g/ha [2, 15]: 85 to 94%; pest or weed control at 70 g/ha [2, 16]: 95 to 100%; pest or weed control at 140 g/ha [2, 16]: 95 to 100%"
